Assay results as given in ChEMBL document CHEMBL1149799, “Bioactive peroxides as potential therapeutic agents” (Eur J Med Chem, 2008).
pIC50: −log10 of the molar value. Values after ≈ are worked out from the molar mass of the structure shown.

How the values were obtained:
[1] = Cytotoxicity against mouse B16-F1cells; format: functional, cell-based; conditions: B16-F1
KB = test: Cytotoxicity against human KB cells; format: functional, cell-based; conditions: Homo sapiens; for EC50: KB, read-out: ED50 (the source's name)
[2] = Cytotoxicity against human […] cells; format: functional; conditions: read-out: ED50 (the source's name)
P388 = test: Cytotoxicity against mouse P388 cells; format: functional, cell-based; conditions: Mus musculus, P388; for EC50: read-out: ED50 (the source's name)
A549 = test: Cytotoxicity against human A549 cells; format: functional, cell-based; conditions: Homo sapiens, A549; for EC50: read-out: ED50 (the source's name)
NCI-H460 = test: Cytotoxicity against human NCI-H460 cells; format: functional, cell-based
SF-268 = test: Cytotoxicity against human SF268 cells; format: functional, cell-based
MCF7 = test: Cytotoxicity against human MCF7 cells; format: functional, cell-based
BXPC-3 = test: Cytotoxicity against human BXPC3 cells; format: functional
DU-145 = test: Cytotoxicity against human DU145 cells; format: functional, cell-based
KM-20L2 = test: Cytotoxicity against human KM20L2 cells; format: functional
HT-29 = test: Cytotoxicity against human HT29 cells; format: functional, cell-based; conditions: Homo sapiens, HT-29
[3] = system: Vesicular stomatitis virus; test: Antiviral activity against Vesicular stomatitis virus; format: functional, organism-based
Human alphaherpesvirus 1 = test: Antiviral activity against herpes simplex virus type-1; format: functional, organism-based
[4] = Cytotoxicity against human HERP3B cells; format: functional
PC-3 = test: Cytotoxicity against human PC3 cells; format: functional, cell-based
Plasmodium falciparum = test: Antimalarial activity against Plasmodium falciparum W2; format: functional, organism-based
WEHI-164 = test: Cytotoxicity against mouse WEHI164 cells; format: functional, cell-based
[5] = Cytotoxicity against human NCI60 cells; format: functional
[6] = Cytotoxicity against human CFUGM; format: functional; conditions: CFU-GM
[7] = Cytotoxicity against mouse Ehrlich Ascites carcinoma by […] assay; format: functional
[8] = Cytotoxicity against mouse Ehrlich Ascites carcinoma by clonogenic assay; format: functional
Candida albicans = test: Antifungal activity against Candida albicans; format: functional
[9] = Cytotoxicity against human GXF251L cells; format: functional, cell-based; conditions: GXF 251L
[10] = Cytotoxicity against human RXF486L cells; format: functional, cell-based; conditions: RXF 486L
[11] = Cytotoxicity against human LXF529L cells; format: functional, cell-based; conditions: LXF 529L
[12] = Cytotoxicity against human MAXF401NL cells; format: functional, cell-based; conditions: MAXF 401NL
[13] = Cytotoxicity against human UXF1138L cells; format: functional, cell-based; conditions: UXF 1138L
[14] = Cytotoxicity against human MAXF642NL cells; format: functional, cell-based
SK-BR-3 = test: Cytotoxicity against human SKBR3 cells; format: functional, cell-based
PSN1 = test: Cytotoxicity against human PSN1 cells; format: functional, cell-based
T98G = test: Cytotoxicity against human T98G cells; format: functional, cell-based
[15] = Cytotoxicity against human H116 cells; format: functional, cell-based
LoVo = test: Cytotoxicity against human LoVo cells; format: functional
L1210 = test: Cytotoxicity against mouse L1210 cells; format: functional, cell-based; conditions: Mus musculus, L1210
EL4 = test: Cytotoxicity against […] cells; format: functional, cell-based; conditions: Mus musculus
[16] = Cytotoxicity against human P833 cells; format: functional, cell-based

COC(=O)C[C@H]1OO[C@](C)(C/C(C)=C/C(C)=C/Cc2ccccc2)C[C@H]1C [CAPUCINOATE B]
IC50 [1]: 0.012 µg/mL (≈ 0.0322 µM)

C=CC(C[C@@H](C)[C@H]1CC[C@H]2[C@@H]3CC=C4C[C@@H](O)CC[C@]4(C)[C@H]3CC[C@]12C)(OO)C(C)C (stereo not given in full)
EC50 (KB): 1.8 µg/mL (≈ 4.18 µM) | EC50 [2]: 5.9 µg/mL (≈ 13.7 µM) | EC50 (P388): 0.3 µg/mL (≈ 0.697 µM) | EC50 (A549): 7.1 µg/mL (≈ 16.5 µM)

CC(C)/C(=C\COO)CC[C@@H](C)[C@H]1CC[C@@H]2[C@@H]1CC[C@H]1[C@H]2CC=C2C[C@@H](O)CC[C@@]21C
EC50 (KB): 2.2 µg/mL (≈ 5.11 µM) | EC50 [2]: 5 µg/mL (≈ 11.6 µM) | EC50 (P388): 0.5 µg/mL (≈ 1.16 µM) | EC50 (A549): 2.2 µg/mL (≈ 5.11 µM)

CC/C(=C\[C@@]1(CC)C[C@H](CC)[C@H](CC(=O)OC)OO1)[C@H]1O[C@H]1CC [PLAKORSTATIN 1]
GI50 (NCI-H460): >10 | GI50 (SF-268): 1.8 | GI50 (MCF7): >10 | GI50 (BXPC-3): >10 | GI50 (DU-145): >10 | GI50 (KM-20L2): >10 | EC50 (P388): 1.1 µg/mL (≈ 3.23 µM)

C=C(C)[C@@H](CC)CC[C@@H](C)[C@H]1CC[C@H]2[C@@H]3C=C[C@@]4(OO)C[C@@H](O)CC[C@]4(C)[C@H]3CC[C@@H]21
EC50 (KB): 1 µg/mL (≈ 2.32 µM) | EC50 [2]: 0.9 µg/mL (≈ 2.09 µM) | EC50 (P388): 0.5 µg/mL (≈ 1.16 µM) | EC50 (A549): 1.1 µg/mL (≈ 2.55 µM)

C[C@H](C(=O)O)[C@@H]1CC[C@](C)(CC[C@]2(C)[C@H](C)CC[C@@]3(C)C(C)(C)CCC[C@]32O)OO1 [MYCAPEROXIDE A]
IC50 (HT-29): 0.5 µg/mL (≈ 1.18 µM) | IC50 [3]: 0.25 µg/mL (≈ 0.589 µM) | IC50 (P388): 0.5 µg/mL (≈ 1.18 µM) | IC50 (Human alphaherpesvirus 1): 0.25 µg/mL (≈ 0.589 µM) | IC50 (A549): 0.5 µg/mL (≈ 1.18 µM)

CCOc1ccc(OOc2ccc(OCC)c3cc4c(cc23)[C@]2(C)CCC(=O)c3coc(c32)C4=O)c2cc3c(cc12)[C@@]1(C)CCC(=O)c2coc(c21)C3=O
Activity [4]: 5 | Activity (PC-3): 35

C=C(C)[C@@H](CC)CC[C@@H](C)[C@H]1CC[C@@H]2[C@@H]1CC[C@H]1[C@H]2[C@@H](OO)C=C2C[C@@H](O)CC[C@@]21C
EC50 (KB): 1 µg/mL (≈ 2.32 µM) | EC50 [2]: 1 µg/mL (≈ 2.32 µM) | EC50 (P388): 0.4 µg/mL (≈ 0.929 µM) | EC50 (A549): 0.5 µg/mL (≈ 1.16 µM)

COC(=O)C[C@H]1OO[C@](C)(C/C(C)=C/C=C/Cc2ccccc2)C[C@H]1C [CAPUCINOATE A]
IC50 [1]: 0.012 µg/mL (≈ 0.0335 µM)

CCC/C=C/[C@]1(CC)C[C@H](CC)[C@H](CC(=O)OC)OO1 [PLAKORTIDE K]
IC50 (Plasmodium falciparum): 0.57 µg/mL (≈ 2 µM)

CC/C=C/C(CC)C/C(C)=C/[C@]1(CC)C[C@@H](CC)[C@H](CC(=O)OC)OO1 (stereo not given in full)
IC50 (WEHI-164): 8.2 µg/mL (≈ 22.4 µM)

CC1(C)CC(C23C=CC(CO)(CCC2)OO3)CCC1Br (stereo not given) [MAJAPOLENES A]
GI50 [5]: 0.4 µM | TGI [5]: 0.9 µM | CC50 ([5]; read-out: LC50 (the source's name)): 2.8 µM

C[C@@H]1CC[C@H]2[C@@H](C)C(=O)O[C@@H]3O[C@@]4(C)CC[C@@H]1[C@]32OO4 [ARTEMISININ]
pIC50 [6]: 3.41 | pIC50 [7]: < 3.14 | pIC50 [8]: < 3.00

CCCCC(CC)C/C(C)=C/[C@@]1(CC)C[C@@H](CC)[C@@H](CC(=O)OC)OO1 (stereo not given in full)
IC50 (WEHI-164): 9.5 µg/mL (≈ 25.8 µM)

CC/C(=C\[C@@]1(CC)C[C@H](CC)[C@H](CC(=O)OC)OO1)[C@@H]1O[C@@H]1CC [PLAKORSTATIN 2]
GI50 (NCI-H460): >10 | GI50 (SF-268): 1.6 | GI50 (MCF7): 3.8 | GI50 (BXPC-3): 6.4 | GI50 (DU-145): 1.7 | GI50 (KM-20L2): 6.7 | EC50 (P388): 0.91 µg/mL (≈ 2.67 µM)

CC(CCCCCC/C=C\C=C\c1ccccc1)C[C@]1(C)C[C@](C)(CC(=O)O)OO1 (stereo not given in full)
MIC (Candida albicans): 1.6 µg/mL (≈ 3.86 µM)

CCCCCC[C@@]1(CC)C=C(CC)[C@@H](CC(=O)OC)OO1
IC50 [9]: 8.3 µg/mL (≈ 27.8 µM) | IC50 [10]: 14.4 µg/mL (≈ 48.3 µM) | IC50 [11]: 7.7 µg/mL (≈ 25.8 µM) | IC50 [12]: 14.9 µg/mL (≈ 49.9 µM) | IC50 [13]: 14.1 µg/mL (≈ 47.2 µM) | IC50 [14]: 7.2 µg/mL (≈ 24.1 µM)

C=C1C(=O)O[C@@H]2O[C@@]3(C)CC[C@H]4[C@H](C)CC[C@@H]1[C@@]24OO3
pIC50 [6]: 5.77 | pIC50 [7]: 4.95 | pIC50 [8]: 5.00

CC(CCCCCC/C=C\C=C\c1ccccc1)CC1(C)CC(C)(CC(=O)O)OO1 (single isomer, unassigned)
MIC (Candida albicans): 1.6 µg/mL (≈ 3.86 µM)

CC(C)(OO)C1=C[C@@]23CCC4C(C)(C)CCC[C@]4(C)[C@H]2C[C@H]1OO3 (stereo not given in full)
IC50 (SK-BR-3): > 5 µg/mL | IC50 (PSN1): 5 µg/mL (≈ 14.9 µM) | IC50 (T98G): > 5 µg/mL | IC50 (A549): 5 µg/mL (≈ 14.9 µM) | IC50 [15]: 2.5 µg/mL (≈ 7.43 µM)

CCC(=O)/C=C/[C@@]1(CC)C[C@H](CC)[C@H](CC(=O)OC)OO1 [PLAKORTOLIDE I(M)]
IC50 (Plasmodium falciparum): 0.57 µg/mL (≈ 1.91 µM)

CCCCC[C@@]1(CC)C=C(CC)[C@@H](CC(=O)OC)OO1
IC50 [9]: > 10 µg/mL | IC50 [10]: > 10 µg/mL | IC50 [11]: > 10 µg/mL | IC50 [12]: > 10 µg/mL | IC50 [13]: > 10 µg/mL | IC50 [14]: > 10 µg/mL

CC(=O)O[C@H]1C(=O)[C@@]2(C)[C@H]([C@H](OC(=O)c3ccccc3)[C@]3(O)C[C@H](OC(=O)[C@H](O)[C@@H](NC(=O)c4ccccc4)c4ccccc4)C(C)=C1C3(C)C)[C@]1(OC(C)=O)CO[C@@H]1C[C@@H]2O [PACLITAXEL]
Activity [4]: 85 | Activity (PC-3): 80

CC(CCCC/C=C/CC/C=C\c1ccccc1)C[C@]1(C)C[C@](C)(CC(=O)O)OO1 (stereo not given in full) [EPIPLAKINIC ACID C]
MIC (LoVo): 1 µg/mL (≈ 2.41 µM) | MIC (KB): 0.01 µg/mL (≈ 0.0241 µM) | IC50 (L1210): 0.052 µg/mL (≈ 0.125 µM) | IC50 (EL4): 4.6 µg/mL (≈ 11.1 µM) | IC50 (P388): 2.5 µg/mL (≈ 6.03 µM) | IC50 (A549): 2 µg/mL (≈ 4.82 µM)

CC/C=C/C(CC)C/C(C)=C/[C@]1(CC)C[C@H](CC)[C@H](CC(=O)OC)OO1 (stereo not given in full) [PLAKORTIDE H]
IC50 (WEHI-164): 7.1 µg/mL (≈ 19.4 µM)

CCC/C=C/[C@]1(CC)C[C@H](CC)[C@H](CC(=O)O)OO1 [PLAKORTIDE L]
IC50 (Plasmodium falciparum): 0.57 µg/mL (≈ 2.11 µM)

C[C@@H]1C[C@@H]([C@H](O)CC2CC(=O)NC(=O)C2)C(=O)[C@@H](C)C1 [CYCLOHEXIMIDE]
IC50 (SK-BR-3): 0.05 µg/mL (≈ 0.178 µM) | IC50 (PSN1): 0.01 µg/mL (≈ 0.0355 µM) | IC50 (T98G): 2.5 µg/mL (≈ 8.89 µM) | IC50 (A549): 0.1 µg/mL (≈ 0.355 µM) | IC50 [15]: 0.1 µg/mL (≈ 0.355 µM)

C[C@H](C(=O)O)[C@@H]1CC[C@@](C)(CC[C@@]2(O)[C@H](C)CC[C@@]3(C)C(C)(C)CCC[C@]23C)OO1 [MYCAPEROXIDE B]
IC50 (HT-29): 0.5 µg/mL (≈ 1.18 µM) | IC50 [3]: 0.25 µg/mL (≈ 0.589 µM) | IC50 (P388): 0.5 µg/mL (≈ 1.18 µM) | IC50 (Human alphaherpesvirus 1): 0.25 µg/mL (≈ 0.589 µM) | IC50 (A549): 0.5 µg/mL (≈ 1.18 µM)

COc1ccc(OOc2ccc(OC)c3cc4c(cc23)[C@]2(C)CCC(=O)c3coc(c32)C4=O)c2cc3c(cc12)[C@@]1(C)CCC(=O)c2coc(c21)C3=O
Activity [4]: 5 | Activity (PC-3): 56

CCCC[C@H](CC)C[C@]1(CC)C=C(CC)[C@H](CC(=O)O)OO1 [HATERUMADIOXIN B]
IC50 [16]: 0.0055 µg/mL (≈ 0.0176 µM)

CC(C)(O)C1=C[C@@]23CCC4C(C)(C)CCC[C@]4(C)[C@H]2C[C@H]1OO3 (stereo not given in full)
IC50 (SK-BR-3): > 5 µg/mL | IC50 (PSN1): > 5 µg/mL | IC50 (T98G): > 5 µg/mL | IC50 (A549): > 5 µg/mL | IC50 [15]: > 5 µg/mL

CC/C=C/[C@H](CC)C[C@]1(CC)C=C(CC)[C@H](CC(=O)O)OO1 [HATERUMADIOXIN A]
IC50 [16]: 0.011 µg/mL (≈ 0.0354 µM)
